A short description of data set [1]: Stability (degradation) of pharmaceutical preparations at 40° C. and 70% relative humidity. In kind it is physicochemical. Particulars: three-month period, compared to bromocriptine mesylate. How it is done:
Pharmaceutical preparations of bromocriptine mesylate and bromocriptine citrate are exposed to atmospheric conditions (40° C. and 70% relative humidity) and the degradation of the bromocriptine is assessed over time.

Data set [2] is described as follows: Aqueous solubility/dissolution of bromocriptine citrate relative to bromocriptine mesylate. Particulars: various pH conditions, compared to bromocriptine mesylate. In kind it is physicochemical. How it is done:
Solid samples of equal amounts of bromocriptine mesylate and bromocriptine citrate added, under various pH conditions, to equal volumes of water or water/organic solutions in different vessels and the dissolution of the bromocriptine samples (aqueous solubility) was assessed over time.

On to “2-bromo-alpha-ergocryptine citrate [bromocriptine citrate]”, for which, in data set [1], the “degradation of the bromocriptine” value was “substantially less”. For the same substance, the rate of dissolution result in data set [2] (solid samples in water or water/organic solutions) was “dissolve much more quickly”. Also, the “aqueous solubility (mg of bromocriptine dissolved per ml of water)” value in data set [2] (water or water/organic solutions) is “significantly greater solubility”.

Values taken from patent publication US12668590B2, “Composition and method for treating metabolic disorders” (priority 2016, dated 2026).
